Source: BindingDB's records for doi:10.1021/jm00053a022 (University of Paris, 1993)
Non-standard residues stand in square brackets, D forms with d. Residues, ends and D or L forms follow the SMILES beside them. *: point of attachment. NMeW = CN[C@@H](Cc1c[nH]c2ccccc12)C(=O)O; 1Nal = N[C@@H](Cc1cccc2ccccc12)C(=O)O; Chg = N[C@H](C(=O)O)C1CCCCC1; Phg = N[C@H](C(=O)O)c1ccccc1; OtBu = CC(C)(C)O*

biological target: Gastrin/cholecystokinin type B receptor (Cavia porcellus); experiment: Displacement of [3H]pCCK-8 from cholecystokinin type B receptor in guinea pig brain membrane

Structure (SMILES)	Ki [nM]
CCCC[C@H](NC(=O)[C@H](CC(=O)O)NC(=O)[C@@H](N)Cc1ccccc1)C(=O)N[C@H](Cc1c[nH]c2ccccc12)C(=O)OC(C)(C)C [3-(2-Amino-3-phenyl-propionylamino)-N-{1-[1-tert-butoxycarbonyl-2-(1H-indol-3-yl)-ethylcarbamoyl]-pentyl}-succinamic acid]	160

biological target: Gastrin/cholecystokinin type B receptor (Cavia porcellus); experiment: as above; remark: another data set of the same source

Structure (SMILES)	Ki [nM]
CN(C(=O)[C@@H](NC(=O)[C@H](CC(=O)O)NC(=O)[C@@H](N)Cc1cccc2ccccc12)c1ccccc1)[C@@H](Cc1c[nH]c2ccccc12)C(=O)OC(C)(C)C [3-(2-Amino-3-naphthalen-1-yl-propionylamino)-N-({[1-tert-butoxycarbonyl-2-(1H-indol-3-yl)-ethyl]-methyl-carbamoyl}-phenyl-methyl)-succinamic acid] (H-[1Nal]D[Phg][NMeW]-OtBu)	170
CN(C(=O)[C@@H](NC(=O)[C@H](CC(=O)O)NC(=O)[C@@H](N)Cc1cccc2ccccc12)C1CCCCC1)[C@@H](Cc1c[nH]c2ccccc12)C(=O)OC(C)(C)C [3-(2-Amino-3-naphthalen-1-yl-propionylamino)-N-({[1-tert-butoxycarbonyl-2-(1H-indol-3-yl)-ethyl]-methyl-carbamoyl}-cyclohexyl-methyl)-succinamic acid] (H-[1Nal]D[Chg][NMeW]-OtBu)	140
CCCC[C@H](NC(=O)[C@H](CC(=O)O)NC(=O)[C@H](Cc1cccc2ccccc12)N(C)C)C(=O)N(C)[C@@H](Cc1c[nH]c2ccccc12)C(=O)OC(C)(C)C [N-(1-{[1-tert-Butoxycarbonyl-2-(1H-indol-3-yl)-ethyl]-methyl-carbamoyl}-pentyl)-3-(2-dimethylamino-3-naphthalen-1-yl-propionylamino)-succinamic acid]	81
CCCC[C@H](NC(=O)[C@H](CC(=O)O)NC(=O)[C@@H](N)Cc1ccccc1)C(=O)N[C@H](Cc1c[nH]c2ccccc12)C(=O)OC(C)(C)C [3-(2-Amino-3-phenyl-propionylamino)-N-{1-[1-tert-butoxycarbonyl-2-(1H-indol-3-yl)-ethylcarbamoyl]-pentyl}-succinamic acid]	160
CN(C)[C@@H](Cc1cccc2ccccc12)C(=O)N[C@@H](CC(=O)O)C(=O)N[C@H](C(=O)N[C@@H](Cc1c[nH]c2ccccc12)C(=O)OC(C)(C)C)c1ccccc1 [N-{[1-tert-Butoxycarbonyl-2-(1H-indol-3-yl)-ethylcarbamoyl]-phenyl-methyl}-3-(2-dimethylamino-3-naphthalen-1-yl-propionylamino)-succinamic acid]	39
CN(C)[C@@H](Cc1cccc2ccccc12)C(=O)N[C@@H](CC(=O)O)C(=O)N[C@H](C(=O)N[C@@H](Cc1c[nH]c2ccccc12)C(=O)OC(C)(C)C)C1CCCCC1 [N-{[1-tert-Butoxycarbonyl-2-(1H-indol-3-yl)-ethylcarbamoyl]-cyclohexyl-methyl}-3-(2-dimethylamino-3-naphthalen-1-yl-propionylamino)-succinamic acid]	74
CC(C)(C)OC(=O)[C@H](Cc1c[nH]c2ccccc12)NC(=O)[C@H](Cc1ccccc1)NC(=O)[C@H](CC(=O)O)NC(=O)[C@@H](N)Cc1cccc2ccccc12 [3-(2-Amino-3-naphthalen-1-yl-propionylamino)-N-{1-[1-tert-butoxycarbonyl-2-(1H-indol-3-yl)-ethylcarbamoyl]-2-phenyl-ethyl}-succinamic acid] (H-[1Nal]DFW-OtBu)	71
